Test results reported in PubChem BioAssay (NCI).
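GI50 = concentration required for 50% inhibition of growth. Definition used: TGI = concentration required for complete inhibition of growth.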

Experiments:
Test in all cases: NCI anticancer screen, dose series, 384-well format
NCI-H460 NSCLC = system: NCI-H460 NSCLC
UACC-257 melanoma = system: UACC-257 melanoma
NCI-H226 lung = system: NCI-H226 lung
LOX IMVI melanoma = system: LOX IMVI melanoma
RXF 393 renal = system: RXF 393 renal
ACHN renal = system: ACHN renal
K-562 leukemia = system: K-562 leukemia
MDA-MB-435 melanoma = system: MDA-MB-435 melanoma
CCRF-CEM leukemia = system: CCRF-CEM leukemia
HS 578T breast = system: HS 578T breast
PC-3 prostate = system: PC-3 prostate
SW-620 colon = system: SW-620 colon
HCT-116 colon = system: HCT-116 colon
OVCAR-3 ovarian = system: OVCAR-3 ovarian
NCI/ADR-RES ovarian = system: NCI/ADR-RES ovarian
T-47D breast = system: T-47D breast
CAKI-1 renal = system: CAKI-1 renal
SF-295 CNS = system: SF-295 CNS
SK-MEL-5 melanoma = system: SK-MEL-5 melanoma
HOP-62 NSCLC = system: HOP-62 NSCLC
UACC-62 melanoma = system: UACC-62 melanoma
OVCAR-8 ovarian = system: OVCAR-8 ovarian
SR leukemia = system: SR leukemia
TK-10 renal = system: TK-10 renal
HL-60(TB) leukemia = system: HL-60(TB) leukemia
SF-539 CNS = system: SF-539 CNS

COc1ccc(/C=C\c2cc(OC)c(OC)c(OC)c2)cc1NC(=O)[C@@H](N)CO
GI50 (NCI-H460 NSCLC): 17.3 nM | TGI (NCI-H460 NSCLC): 36 nM | GI50 (UACC-257 melanoma): < 10 nM | TGI (UACC-257 melanoma): > 100 µM | GI50 (NCI-H226 lung): < 10 nM | TGI (NCI-H226 lung): 25.3 nM | GI50 (LOX IMVI melanoma): 12.2 nM | TGI (LOX IMVI melanoma): 80.3 nM | GI50 (RXF 393 renal): < 10 nM | TGI (RXF 393 renal): < 10 nM | GI50 (ACHN renal): < 10 nM | TGI (ACHN renal): 52.2 µM | GI50 (K-562 leukemia): < 10 nM | TGI (K-562 leukemia): 12.3 nM | GI50 (MDA-MB-435 melanoma): < 10 nM | TGI (MDA-MB-435 melanoma): < 10 nM | GI50 (CCRF-CEM leukemia): < 10 nM | TGI (CCRF-CEM leukemia): < 10 nM | GI50 (HS 578T breast): < 10 nM | TGI (HS 578T breast): < 10 nM | GI50 (PC-3 prostate): < 10 nM | TGI (PC-3 prostate): > 100 µM | GI50 (SW-620 colon): < 10 nM | TGI (SW-620 colon): > 100 µM | GI50 (HCT-116 colon): < 10 nM | TGI (HCT-116 colon): 103 nM | GI50 (OVCAR-3 ovarian): < 10 nM | TGI (OVCAR-3 ovarian): 20.7 nM | GI50 (NCI/ADR-RES ovarian): < 10 nM | TGI (NCI/ADR-RES ovarian): < 10 nM | GI50 (T-47D breast): < 10 nM | TGI (T-47D breast): 68.6 µM | GI50 (CAKI-1 renal): < 10 nM | TGI (CAKI-1 renal): > 100 µM | GI50 (SF-295 CNS): < 10 nM | TGI (SF-295 CNS): < 10 nM | GI50 (SK-MEL-5 melanoma): < 10 nM | TGI (SK-MEL-5 melanoma): < 10 nM | GI50 (HOP-62 NSCLC): < 10 nM | TGI (HOP-62 NSCLC): 196 nM | GI50 (UACC-62 melanoma): < 10 nM | TGI (UACC-62 melanoma): > 100 µM | GI50 (OVCAR-8 ovarian): 10.4 nM | TGI (OVCAR-8 ovarian): 35.9 nM | GI50 (SR leukemia): < 10 nM | TGI (SR leukemia): < 10 nM | GI50 (TK-10 renal): < 10 nM | TGI (TK-10 renal): > 100 µM | GI50 (HL-60(TB) leukemia): < 10 nM | TGI (HL-60(TB) leukemia): < 10 nM | GI50 (SF-539 CNS): < 10 nM
